Assay results: PMC8246084, “Mapping the binding site topology of amyloid protein aggregates using multivalent ligands” (Chemical Science, 2021)
Read-outs that look alike come from different tables or passages of the source.

Tests used:
[1] = Solubility for fluorescence titrations in PBS; format: physicochemical; conditions: PBS 1× titration conditions
From the text: Eqn (1)–(3) can be fit to the two sets of titration data in Fig. 3 to determine the dissociation constant Kd and brightness (ef) of the free and bound BTA dimer, and in the case of high affinity binding, the concentration of binding sites on the protein fibrils. In all cases, the titration data fit well to a 1 : 1 binding isotherm, and the lines shown in Fig. 3 are the calculated lines of best fit.
Fluorescent titrations with the polydisperse mixtures of BTA dimers were used to measure the apparent binding affinities for α-synuclein fibrils in the same way as described above for the monodisperse BTA dimers. The titration data fit well to a 1 : 1 binding isotherm allowing for the fluorescence emission from the free dye as described above, and the results are summarised in Table 2. […] The dissociation constants for the other polydisperse BTA dimers are in the same range as those measured for the monodisperse analogues. […]
5. Fluorescence titrations […]
The fluorescence spectra were analysed using a Microsoft Excel spreadsheet to fit the changes in fluorescence intensity at fixed wavelengths to a 1:1 binding isotherm by optimizing the association constant, the optical brightness of the free and bound guest, and the concentration of protein binding sites using purpose written VBA macros. […]
Figure S25. Fluorescence titration of compound 14. […]
Figure S26. Fluorescence titration of compound 15. […]

[2] = system: 4G8-positive extracellular plaques (Aβ); assay: Staining of brain sections from patients with Alzheimer's disease (Aβ); set-up: species or system human; conditions: compound 1 μM
From the text: (§1) Brain sections from patients with Parkinson's disease were labelled with antibodies against α-synuclein (LB509 and pS129) and stained with compounds 13, 14 and 15 (Fig. 8a). LB509/pS129-positive Lewy bodies, that were identified as cytoplasmic spheres, were stained by both compounds 14 and 15 but not by compound 13. […] To assess any potential cross-reactivity with other pathological amyloid aggregates, such as Aβ plaques and neurofibrillary tangles of tau, brain sections from patients with Alzheimer's disease were labelled with antibody against tau (dako tau) and Aβ (4G8) and stained with compounds 13, 14 and 15 (Fig. 8b).
(§2) Fig. 8 Fluorescence microscope images of human brain sections. (a) Sections from patients with Parkinson's disease labelled with antibodies against α-synuclein (LB509 and pS129) and stained with compounds 13, 14 and 15 (100 nM). (b) Sections from patients with Alzheimer's disease labelled with antibodies against tau (dako tau) and Aβ (4G8) and stained with compounds 13, 14 and 15 (1 μM). Scale bar 20 μm.
(§3) Frozen brain tissues from neuropathologically confirmed cases of PD and AD were obtained from the Cambridge Brain Bank (Table S3). Tissue blocks were post-fixed in 4% paraformaldehyde and cryoprotected before snap freezing in OCT. Brain sections (15 μm) were generated using a cryostat (Bright OTF5000) for immunohistochemistry and compound staining.
(§4) Table S3. Details of human tissue used (SN substantia nigra, FL frontal lobe) Case no Diagnosis Braak Stage Brain region Age
(§5) 9. Immunohistochemistry and Staining […]
(§6) A11011, ThermoFisher) for PD sections or a mixture of goat anti-mouse ALEXA-647 (1:1000, A21235, ThermoFisher) and goat anti-rabbit ALEXA-546 (1:1000, A11035, ThermoFisher) for AD sections. […] Fluorescence images were taken using a Leica DMI4000B.

[3] = biological target: Tau-positive neuronal inclusions (Homo sapiens, UniProt P10636); assay: Staining of brain sections from patients with Alzheimer's disease (tau); conditions: compound 1 μM
From the text: as §1, §2, §3, §4, §5, §6

[4] = biological target: T1, α-synuclein aggregates (LB509/pS129-positive Lewy bodies) (Homo sapiens, UniProt P37840); assay: Staining of brain sections from patients with Parkinson's disease; conditions: compound 100 nM
T1 construct: tissue Cambridge Brain Bank; host or cells: post-mortem human brain sections, Parkinson's disease, substantia nigra
From the text: as §1, §2, §3, §4
9. Immunohistochemistry and Staining
Fixed brain sections were washed with 70% EtOH and allowed to air dry for 20 min before incubation overnight at 4°C with either a mixture of monoclonal antibodies for α-syn (1:500, ab27766, Abcam) and pS129 α-syn (1:500, ab51253, Abcam) for PD sections or a mixture of monoclonal antibody for Aβ (1:500, 800701, Biolegend) and polyclonal antibody for human tau (1:500, A002401-2, Agilent) for AD sections. Sections were washed with PBS 3 x 15 min and incubated for 3 h at room temperature in secondary antibody, either a mixture of goat anti- […]
A11011, ThermoFisher) for PD sections or a mixture of goat anti-mouse ALEXA-647 (1:1000, A21235, ThermoFisher) and goat anti-rabbit ALEXA-546 (1:1000, A11035, ThermoFisher) for AD sections. Compounds 13, 14 and 15 were also diluted in the secondary antibody preparation at stated concentrations. Sections were washed with PBS 3 x 10 min and once with 70% EtOH 5 min before blocking autofluorescence with Autofluorescence Inhibitor (2160, Millipore) for 5 min. After 3 x 1 min washes in 70% EtOH sections were mounted using Fluorosave mounting medium (345789, Millipore). Fluorescence images were taken using a Leica DMI4000B.

tau fibrils (htau 0N4R) = biological target: T2, tau fibrils (htau 0N4R) (Homo sapiens, UniProt P10636); assay: Fluorescence titration with tau fibrils; conditions: monodisperse BTA dimers; 0.5 μM tau; PBS 1× pH 7.4, 298 K; errors at 95% confidence limit; read-out: Dissociation constant (Kd) for binding to tau fibrils
T2 construct: purchased InVivo BioTech Services GmbH, Germany

α-synuclein fibrils = α-synuclein fibrils (Homo sapiens, UniProt P37840); assay: Fluorescence titration with α-synuclein fibrils; format: binding
Aβ42 fibrils = biological target: T3, Aβ42 fibrils (Homo sapiens, UniProt P05067); assay: Fluorescence titration with Aβ42 fibrils; conditions: monodisperse BTA dimers; 0.5 μM Aβ42; PBS 1× pH 7.4, 298 K; errors at 95% confidence limit; read-out: Dissociation constant (Kd) for binding to Aβ42 fibrils
T3 construct: monomeric amyloid-b1-42; purchased Stratech A-1167-2-RPE

[5] = biological target: α-synuclein sonicated fibrils (Homo sapiens, UniProt P37840); assay: TIRFM imaging of α-synuclein aggregates in vitro; conditions: nanomolar 15 (4 nM, 200 nM) vs 5 μM ThT; fibrils from 200 nM monomer
From the text: The highest affinity BTA dimers were investigated as fluorescence imaging agents for protein aggregates. Fig. 7 compares in vitro imaging of α-synuclein aggregates with 15 and with thioflavin T (ThT). ThT is widely used to image aggregates, because it has a very low fluorescence emission intensity in the free state, and there is a large increase in fluorescence emission on binding to protein aggregates. The corresponding change in fluorescence emission intensity is much lower for the BTA dimers described here (see Fig. 3).
Fig. 7 TIRFM images of α-synuclein sonicated fibrils in the presence of (a) 4 nM 15, (b) 200 nM 15 and (c) 5 μM ThT. Fibrils were obtained from 200 nM samples of the monomer. All images have the same contrast. Scale bar 10 μm.
7. Total internal reflection fluorescence microscopy (TIRFM) imaging
Imaging was performed using a homebuilt total internal reflection fluorescence microscope as reported previously.7 Briefly, this imaging mode restricts detectable axial fluorescence signal to within ~200 nm from the glass-water interface. […] Fluorescence was collected by the same objective and was separated from the returning TIR beam by a dichroic (Di01-R405/488/561/635, Semrock), and passed through […]
respectively). The images were recorded on an EMCCD camera (Evolve 512, Photometrics) operating in frame transfer mode (EMGain of 11.5 e−/ADU and 250 ADU/photon). […]

[6] = monodisperse BTA dimers, 1 μM α-synuclein, PBS 1× pH 7.4, 298 K, errors at 95% confidence limit, read-out: Dissociation constant (Kd) for binding to α-synuclein fibrils

T3 sequence (P05067 672-713 limits assumed): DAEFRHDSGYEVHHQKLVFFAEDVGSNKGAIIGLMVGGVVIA
T2 sequence (P10636 1-383 isoform P10636-6): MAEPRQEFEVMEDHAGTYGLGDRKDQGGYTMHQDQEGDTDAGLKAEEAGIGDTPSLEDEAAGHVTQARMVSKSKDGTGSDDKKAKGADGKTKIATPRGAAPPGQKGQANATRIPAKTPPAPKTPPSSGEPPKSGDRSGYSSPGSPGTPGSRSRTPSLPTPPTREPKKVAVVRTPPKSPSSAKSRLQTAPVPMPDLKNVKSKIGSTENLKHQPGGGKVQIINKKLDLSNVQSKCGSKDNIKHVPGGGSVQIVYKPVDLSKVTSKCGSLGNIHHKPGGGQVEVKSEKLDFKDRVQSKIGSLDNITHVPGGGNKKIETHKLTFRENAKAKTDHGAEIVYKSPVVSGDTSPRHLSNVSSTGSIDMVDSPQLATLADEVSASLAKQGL
Tau-positive neuronal inclusions, sequence (P10636 623-708 limits assumed): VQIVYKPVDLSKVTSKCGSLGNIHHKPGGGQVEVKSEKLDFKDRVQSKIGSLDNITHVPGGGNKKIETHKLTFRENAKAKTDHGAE

| SMILES | Solubility (sufficient to determine accurate dissociation constants) [1] | Staining of 4G8-positive extracellular plaques [2] | Staining of tau-positive neuronal inclusions [3] | Staining of LB509/pS129-positive Lewy bodies [4] | Kd (tau fibrils (htau 0N4R)) | Co-localisation with α-synuclein antibodies elsewhere in the brain section [4] | Kd (α-synuclein fibrils; [6]) | Kd (Aβ42 fibrils) | Image brightness compared with ThT [5] | Kd (α-synuclein fibrils; monomeric BTA analogue, fluorescence titration, read-out: Kd for α-synuclein (binding affinity too low to measure)) |
| --- | --- | --- | --- | --- | --- | --- | --- | --- | --- | --- |
| CN(C)c1ccc(-c2nc3ccc(OCCOCCOCCOc4ccc5nc(-c6ccc(N(C)C)cc6)sc5c4)cc3s2)cc1 [Compound 13] | not sufficiently soluble | no staining | no staining | not | – | – | – | – | – | – |
| CN(C)c1ccc(-c2nc3ccc(OCCOCCOCCOCCOCCOCCOc4ccc5nc(-c6ccc(N(C)C)cc6)sc5c4)cc3s2)cc1 [Compound 14] | – | no staining | no staining | stained | 900 ± 700 nM | significant amounts of co-localisation | 190 ± 140 nM | 1400 ± 1600 nM | – | – |
| CN(C)c1ccc(-c2nc3ccc(OCCOCCOCCOCCOCCOCCOCCOCCOCCOc4ccc5nc(-c6ccc(N(C)C)cc6)sc5c4)cc3s2)cc1 [Compound 15] | – | no staining | no staining | stained | 1000 ± 300 nM | – | 2.7 ± 1.5 nM | 78 ± 26 nM | brighter | – |
| CN(C)c1ccc(-c2nc3ccc(OCCOCCOCCOCCOCCOCCOCCOCCOCCOCCOCCOCCOCCOCCOCCOc4ccc5nc(-c6ccc(N(C)C)cc6)sc5c4)cc3s2)cc1 [Compound 16] | – | – | – | – | 110 ± 57 nM | – | 35 ± 15 nM | 7 ± 5 nM | – | – |
| CN(C)c1ccc(-c2nc3ccc(OCCOCCOCCOCCOCCOCCOCCOCCOCCOCCOCCOCCOCCOCCOCCOCCOCCOCCOCCOCCOCCOc4ccc5nc(-c6ccc(N(C)C)cc6)sc5c4)cc3s2)cc1 [Compound 17] | – | – | – | – | 280 ± 48 nM | – | 210 ± 180 nM | 320 ± 75 nM | – | – |
| COCCOCCOCCOc1ccc2nc(-c3ccc(N(C)C)cc3)sc2c1 [monomeric BTA analogue] | – | – | – | – | – | – | – | – | – | > 1000 nM |
